In patent US4352788A, “Derivatives of 2,4,6-triiodo-isophthalic acid, processes for their synthesis and X-ray contrasting materials containing these” (Bracco Industria Chimica S.p.A., priority 1979, dated 1982):
Converted amounts (≈) assume the structure as drawn. “Also recorded” adds a separate entry of the source. Read-outs that look alike come from different tables or passages of the source. One block for each compound: values may come before it.

Tests used:
Water solubility = format: physicochemical; conditions: for solubility: water
[1] = Viscosity of aqueous solutions; format: physicochemical; conditions: for Viscosity at 37° C.: injection solution (Example 14)
Osmolality of solutions = format: physicochemical; conditions: 37° C.
[2] = Osmotic pressure of solutions; format: physicochemical; conditions: for Osmotic Pressure: 37° C.
[3] = compared with METRIZAMIDE; cited from earlier work
[4] = cited from earlier work
[5] = prior art; cited from earlier work
[6] = cited from earlier work; for water solubility (in words): prior art
[7] = Solubility in organic solvents; format: physicochemical
[8] = Density of injection solution; format: physicochemical; conditions: injection solution (Example 14), in g/mL (unit assumed)
[9] = Stability (hydrolysis, aqueous solution); format: physicochemical
[10] = at 25° C., read-out: Water solubility
[11] = aqueous solution containing 300 mg I/ml, 20° C.
[12] = aqueous solution containing 300 mg I/ml, 37° C.
[13] = aqueous solution containing 400 mg I/ml, 20° C.
[14] = aqueous solution containing 400 mg I/ml, 37° C.
[15] = at 20° C., Table 1, read-out: Solubility in Water

Compound: C[C@H](O)C(=O)Nc1c(I)c(C(=O)NC(CO)CO)c(I)c(C(=O)NC(CO)CO)c1I [IOPAMIDOL hydrate, reference compound]
water solubility (Water solubility; at 20° C.): 307 mg of iodine per ml | solubility (Water solubility; at 20° C., read-out: water solubility): 627 mg/mL

Compound: C[C@H](O)C(=O)Nc1c(I)c(C(=O)NC(CO)CO)c(I)c(C(=O)NC(CO)CO)c1I [Compound B, L-5-α-hydroxypropionylamino-2,4,6-triiodo-isophthalic-acid-bis-(1,3-dihydroxyisopropylamide), reference compound]
water solubility (Water solubility; at 20° C., text): 89.7 % w/v | water solubility (Water solubility; at 20° C., listed as IOPAMIDOL): 440 mg of iodine per ml | Viscosity [1, 11]: 8.95 cP | Viscosity [1, 12]: 4.70 cP | Viscosity [1, 13]: 40.6 cP | Viscosity [1, 14]: 16.1 cP | Osmolality (Osmolality of solutions; 250 mg I/ml): 514 mOsm/kg | Osmolality (Osmolality of solutions; 300 mg I/ml): 619 mOsm/kg | Osmolality (Osmolality of solutions; 350 mg I/ml): 737 mOsm/kg | Osmotic Pressure ([2]; 250 mg I/ml): 13.09 atm | Osmotic Pressure ([2]; 300 mg I/ml): 15.76 atm | Osmotic Pressure ([2]; 350 mg I/ml): 18.77 atm | viscosity of concentrated aqueous solutions (in words) [3]: lower viscosity | stability (in words) ([4]; compared with METRIZAMIDE): higher stability | toxicity (in words) [5]: very low

Compound: CC(O)C(=O)Nc1c(I)c(C(=O)NC(CO)CO)c(I)c(C(=O)NC(CO)CO)c1I (racemic) [d,L-5-α-hydroxypropionylamino-2,4,6-triiodo-isophthalic-acid-bis-(1,3-dihydroxyisopropylamide)]
water solubility (in words) (Water solubility): only limited solubility in water

Compound: CCCCN(C(=O)[C@H](C)O)c1c(I)c(C(=O)NC(CO)CO)c(I)c(C(=O)NC(CO)CO)c1I [Example 4, L-5-(N-butyl-α-hydroxypropionyl-amino)-2,4,6-triiodo-isophthalic-acid-bis-(1,3-dihydroxyisopropylamide)]
solubility (Water solubility; temperature not stated, read-out: Water solubility): ≥ 1000 mg/mL

Compound: CC(=O)Nc1c(I)c(C(=O)NCC(O)CO)c(I)c(C(=O)NCC(O)CO)c1I (stereo not drawn) [5-acetylamino-2,4,6-triiodoisophthalic-acid-bis-(2,3-dihydroxypropylamide)]
water solubility ([6]; at 20°-40° C.): 1 % (w/v) | water solubility (in words) [6]: slightly water-soluble

More lines, main results first:

solubility (Water solubility; [10]): ≥ 1000 mg/mL
Compound: C[C@H](O)C(=O)N(C)c1c(I)c(C(=O)NC(CO)CO)c(I)c(C(=O)NC(CO)CO)c1I [Example 1, L-5-(N-methyl-α-hydroxypropionyl-amino)-2,4,6-triiodoisophthalic-acid-bis-(1,3-dihydroxyisopropylamide)]

solubility (Water solubility; [10]): ≥ 1000 mg/mL
Compound: CCCN(C(=O)[C@H](C)O)c1c(I)c(C(=O)NC(CO)CO)c(I)c(C(=O)NC(CO)CO)c1I [Example 3]

supersaturation of aqueous solutions (Water solubility): supersaturated | water solubility (in words) (Water solubility): dissolves in water very readily
Compound: CC(O)C(=O)N(C)c1c(I)c(C(=O)NC(CO)CO)c(I)c(C(=O)NC(CO)CO)c1I (racemic) [d,L-5-(N-methyl-α-hydroxypropionyl-amino)-2,4,6-triiodo-isophthalic-acid-bis-(1,3-dihydroxyisopropylamide]

solubility (Water solubility; [15]): ~800 mg/mL (≈ 1010 mM) | Viscosity [1, 11]: 11.7 cP | Viscosity [1, 12]: 5.98 cP | Viscosity [1, 13]: 77.8 cP | Viscosity [1, 14]: 26.9 cP
Compound: CC(=O)Nc1c(I)c(C(=O)N[C@H]2C(O)O[C@H](CO)[C@@H](O)[C@@H]2O)c(I)c(N(C)C(C)=O)c1I (stereo partly drawn) [C, 3-acetylamino-4-N-methyl-acetylamino-2,4,6-triiodobenzoylglucosamine, reference compound]
water solubility (in words) [6]: readily water-soluble | stability in aqueous solutions (in words) ([4]; prior art): relatively little stability in aqueous solutions

water solubility (in words) (Water solubility): only slightly soluble in water | solubility in chloroform (in words) ([7]; chloroform): very soluble | Solubility in ethanol (in words) [7]: very soluble | solubility in methanol (in words) ([7]; methanol): very soluble
Compound: CN(C(=O)CO)c1c(I)c(C(=O)NCC2COC(C)(C)O2)c(I)c(C(=O)NCC2COC(C)(C)O2)c1I (stereo not drawn) [Example 13(A), 5-(N-methyl-hydroxyacetyl-amino)-2,4,6-triiodo-isophthalic-acid-bis-(2,3-isopropylidenedihydroxypropylamide)]

water solubility (in words) (Water solubility; listed as Example 9): very readily soluble | water solubility (in words) (Water solubility; listed as Example 11): very soluble | solubility (Water solubility; [15]): > 1000 mg/mL | solubility (Water solubility; read-out: solubility in water): 3000 mg/mL (≈ 3860 mM) | Viscosity [1, 11]: 7.55 cP | Viscosity [1, 12]: 4.19 cP | Viscosity [1, 13]: 22.0 cP | Viscosity [1, 14]: 9.87 cP | Viscosity at 37° C. ([1]; 200 mg iodine/ml): 1.87 cP | Viscosity at 37° C. ([1]; 300 mg iodine/ml): 4.19 cP | Viscosity at 37° C. ([1]; 420 mg iodine/ml): 20.03 cP | Osmolality (Osmolality of solutions; 250 mg I/ml): 452 mOsm/kg | Osmolality (Osmolality of solutions; 300 mg I/ml): 536 mOsm/kg | Osmolality (Osmolality of solutions; 350 mg I/ml): 628 mOsm/kg | Osmotic Pressure ([2]; 250 mg I/ml): 11.52 atm | Osmotic Pressure ([2]; 300 mg I/ml): 13.64 atm | Osmotic Pressure ([2]; 350 mg I/ml): 15.98 atm | osmotic pressure (in words) ([2]; compared with IOPAMIDOL): less than that of IOPAMIDOL | Solubility in ethanol (in words) [7]: limited | Solubility in ethanol ([7]; ethanol at 25° C.): 35 parts by volume | Solubility in ethanol ([7]; ethanol at the boiling point): 20 parts by volume | solubility ([7]; methanol, organic solvent or mixture): 1000 mg/mL (≈ 1290 mM) | solubility in methanol (in words) ([7]; methanol, listed as Example 9): very readily soluble | solubility in methanol (in words) ([7]; methanol, listed as Example 11): very soluble | Density at 37° C. ([8]; 200 mg iodine/ml): 1.207 | Density at 37° C. ([8]; 300 mg iodine/ml): 1.316 | Density at 37° C. ([8]; 420 mg iodine/ml): 1.453 | stability (in words) [9]: high stability
Compound: CN(C(=O)CO)c1c(I)c(C(=O)NCC(O)CO)c(I)c(C(=O)NCC(O)CO)c1I (stereo not drawn) [Compound A, 5-(N-methyl-hydroxyacetylamino)-2,4,6-triiodo-isophthalic-acid-bis-(2,3-dihydroxypropylamide)]
water solubility (in words) (Water solubility): comparatively particularly high water-solubility; also recorded: higher water solubility | viscosity of aqueous solutions (in words) [1]: low viscosity; also recorded: appreciably lower viscosity
